Results published in patent publication US7579474B2, “Substituted piperidines as modulators of dopamine neurotransmission” (NSAB, Filial AF Neurosearch AB, Sverige, priority 2004, dated 2009).
“And” between values parts separate entries of the source, which are not always exact repeats. Equal values may be shown once. Where a name gives a salt, the structure may show the parent alone.

Legend:
[1] = tested on: DOPAC (3,4-dihydroxyphenylacetic acid) in the rat striatum; assay: Increase of DOPAC in the rat striatum after systemic administration (in vivo neurochemistry); details: maximal effects limited to 350-400% of control, range covers 95% of fits, Inactive = inactive at 100 μmol/kg; for ED50: sc; for ED50 DOPAC*: s.c.
Source text: After the behavioural activity sessions, the rats were decapitated and their brains rapidly taken out and put on an ice-cold petri-dish. The limbic forebrain, the striatum, the frontal cortex and the remaining hemispheral parts of each rat were dissected and frozen. Each brain part was subsequently analyzed with respect to its content of monoamines and their metabolites.
The monoamine transmitter substances (NA (noradrenaline), DA (dopamine), 5-HT (serotonin)) as well as their amine (NM (normethanephrine), 3-MT (3-methoxytyramine)) and acid (DOPAC (3,4-dihydroxyphenylacetic acid), 5-HIAA (5-hydroxyindoleacetic acid), HVA (homovanillic acid)) metabolites are quantified in brain tissue homogenates by HPLC separations and electrochemical detection.
The analytical method is based on two chromatographic separations dedicated for amines or acids. Two chromatographic systems share a common auto injector with a 10-port valve and two sample loops for simultaneous injection on the two systems. Both systems are equipped with a reverse phase column (Luna C18(2), dp 3 μm, 50*2 mm i.d., Phenomenex) and electrochemical detection is accomplished at two potentials on glassy carbon electrodes (MF-1000, Bioanalytical Systems, Inc.). Via a T-connection the column effluent is passed to the detection cell or to waste. This is accomplished by two solenoid valves, which block either the waste or detector outlet. By not letting the chromatographic front reach the detector, better detection conditions are achieved. The aqueous mobile phase (0.4 ml/min) for the acid system contains Citric Acid 14 mM, Sodium Citrate 10 mM, MeOH 15% (v/v) and EDTA 0.1 mM. Detection potentials relative to Ag/AgCl reference is 0.45 and 0.60V. The aqueous ion pairing mobile phase (0.5 ml/min) for the amine system contains Citric Acid 5 mM, Sodium Citrate 10 mM, MeOH 9% (v/v), MeCN 10.5% (v/v), Decane Sulfonic Acid 0.45 mM, and EDTA 0.1 mM. Detection potentials relative to Ag/AgCl reference is 0.45 and 0.65V.
ED50 values for the increase of DOPAC in striatum are calculated by curve fitting. For most compounds, the evaluation is based on 20 animals over the dose range 0, 3.7, 11, 33 and 100 μmol/kg s.c. in one single experiment. The DOPAC levels are normalised to control and fitted by least square minimization to the function “End-(End-Control)/(1+(dose/ED50)^Slope)”. The four parameters are fitted with the restrictions: ED50>0, 0.5<Slope<3, 350<End<400 or End=200% of control (see table 1). To estimate confidence levels for the parameters, the fit is repeated 100 times with a random evenly distributed squared weight (0 to 1) for every measurement value. Presented ED50-ranges cover 95% of these values.

[2] = tested on: Locomotor activity in drug-naive rats; assay: Locomotor activity in drug-naive rats; details: for Locomotor activity 0-60 min: drug-naive rats, recorded for 60 minutes; for Locomotor activity 30-60 min: drug-naive habituated rats, recorded between 30 and 60 minutes
[3] = tested on: Locomotor activity in MK-801 pre-treated rats; assay: Locomotor activity in MK-801 pre-treated rats; details: MK-801 alone, 0.7 mg/kg i.p.; recorded 30-60 minutes; one group per experiment; 0.7 mg/kg
hERG ion channel = hERG ion channel (Homo sapiens, UniProt Q12809); assay: Rb efflux through the hERG ion channel; format: cell-based; details: Rb efflux method
Source text: The substances according to the present invention display a low potency at inhibiting the hERG channel, as measured by IC50 in a Rb+ efflux assay (Development and evaluation of high throughput functional assay methods for hERG potassium channel. Tang W, Kang 1, Wu X, Rampe D, Wang L, Shen H, Li Z, Dunnington D, Garyantes T. J Biomol Screen. 2001 October; 6(5):325-31), indicating a low risk for QT interval prolongation and arrhythmia in man.

hERG ion channel, sequence (Q12809 whole entry): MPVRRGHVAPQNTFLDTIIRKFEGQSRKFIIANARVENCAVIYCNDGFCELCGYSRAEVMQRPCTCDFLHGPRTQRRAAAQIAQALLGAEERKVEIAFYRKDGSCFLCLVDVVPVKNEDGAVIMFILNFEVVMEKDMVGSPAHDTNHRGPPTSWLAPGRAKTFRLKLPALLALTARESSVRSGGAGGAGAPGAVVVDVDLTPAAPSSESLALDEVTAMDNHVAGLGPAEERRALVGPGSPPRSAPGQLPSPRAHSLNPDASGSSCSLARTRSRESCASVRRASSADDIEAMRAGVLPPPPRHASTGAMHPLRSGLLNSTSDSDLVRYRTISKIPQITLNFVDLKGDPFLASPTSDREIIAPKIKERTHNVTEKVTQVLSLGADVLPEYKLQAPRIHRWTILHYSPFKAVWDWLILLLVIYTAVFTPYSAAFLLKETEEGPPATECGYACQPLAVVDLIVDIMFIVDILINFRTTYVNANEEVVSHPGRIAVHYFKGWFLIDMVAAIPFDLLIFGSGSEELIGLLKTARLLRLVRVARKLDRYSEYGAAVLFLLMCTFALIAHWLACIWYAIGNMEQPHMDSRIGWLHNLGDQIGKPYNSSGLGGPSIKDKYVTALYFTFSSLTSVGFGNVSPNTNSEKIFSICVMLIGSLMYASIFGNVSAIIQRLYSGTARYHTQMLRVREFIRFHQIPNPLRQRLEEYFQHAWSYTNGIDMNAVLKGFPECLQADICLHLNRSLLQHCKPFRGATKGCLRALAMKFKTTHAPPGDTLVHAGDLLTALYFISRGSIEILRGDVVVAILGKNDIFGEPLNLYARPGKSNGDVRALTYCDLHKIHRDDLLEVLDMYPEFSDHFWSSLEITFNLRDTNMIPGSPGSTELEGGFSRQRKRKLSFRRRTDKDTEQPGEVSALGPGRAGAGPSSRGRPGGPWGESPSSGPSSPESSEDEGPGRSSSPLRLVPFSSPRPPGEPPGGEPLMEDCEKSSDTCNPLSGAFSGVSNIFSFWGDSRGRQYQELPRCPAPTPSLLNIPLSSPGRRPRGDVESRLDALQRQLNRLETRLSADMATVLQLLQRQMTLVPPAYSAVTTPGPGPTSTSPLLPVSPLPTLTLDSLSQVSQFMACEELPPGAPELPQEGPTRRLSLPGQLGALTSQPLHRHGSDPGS

## CCCN1CCC(c2cccc(C(F)(F)F)c2)CC1
[1]
  ED50: 84 µmol/kg

## CCCN1CCC(O)(c2cccc(C(F)(F)F)c2OC)CC1
[1]
  ED50 DOPAC*: Inactive***

## CCCCN1CCC(O)(c2cccc(S(C)(=O)=O)c2F)CC1
[1]
  ED50 DOPAC*: Inactive***

## CCN1CCC(O)(c2cc(F)cc(C(F)(F)F)c2)CC1
[1]
  ED50 DOPAC*: Inactive***
[1]; listed as comparative example 10
  ED50 DOPAC*: inactive

## COCCN1CCC(O)(c2cccc(Cl)c2Cl)CC1
[2]; 11 μmol/kg
  Locomotor activity 0-60 min: 7229 ± 769 counts/60 min ± SEM
[2]; 33 μmol/kg
  Locomotor activity 0-60 min: 7669 ± 1029 counts/60 min ± SEM
[2]; 100 μmol/kg
  Locomotor activity 0-60 min: 7542 ± 844 counts/60 min ± SEM

## CCCN1CCC(O)(c2cccc(Cl)c2Cl)CC1 (as salt: hydrochloric acid salt)
other
  melting point: 181 to 183 °C

## COCCN1CCC(O)(c2cccc(Cl)c2Cl)CC1 (as salt: hydrochloric acid salt)
other
  melting point: 135 to 137 °C

## CCCN1CCC(O)(c2cccc(C(F)(F)F)c2F)CC1 (as salt: hydrochloric acid salt) [Example 1, 4-[2-FLUORO-3-(TRIFLUOROMETHYL)PHENYL]-1-PROPYLPIPERIDIN-4-OL]
other
  melting point: 175 to 177 °C

## COCCN1CCC(O)(c2ccc(Cl)c(C(F)(F)F)c2)CC1 (as salt: hydrochloric acid salt) [Example 2, 4-[4-CHLORO-3-(TRIFLUOROMETHYL)PHENYL]-1-(2-METHOXYETHYL)PIPERIDIN-4-OL]
other
  melting point: 181 to 183 °C

## CCN1CCC(O)(c2cccc(C(F)(F)F)c2F)CC1 (as salt: hydrochloric acid salt) [Example 3, 4-[2-FLUORO-3-(TRIFLUOROMETHYL)PHENYL]-1-ETHYLPIPERIDIN-4-OL]
other
  melting point: 177 to 180 °C

## COCCN1CCC(O)(c2cccc(C(F)(F)F)c2F)CC1 (as salt: hydrochloric acid salt) [Example 4, 4-[2-FLUORO-3-(TRIFLUOROMETHYL)PHENYL]-1-(2-M ETHOXYETHYL)PIPERIDIN-4-OL]
other
  melting point: 159 to 160 °C

## CCCCN1CCC(O)(c2cccc(C(F)(F)F)c2F)CC1 (as salt: hydrochloric acid salt) [Example 5, 4-[2-FLUORO-3-(TRIFLUOROMETHYL)PHENYL]-1-BUTYLPIPERIDIN-4-OL]
other
  melting point: 138 °C

## CCCN1CCC(O)(c2ccc(F)c(C(F)(F)F)c2)CC1 (as salt: hydrochloric acid salt) [Example 8, 4-[4-FLUORO-3-(TRIFLUOROMETHYL)PHENYL]-1-PROPYLPIPERIDIN-4-OL]
other
  melting point: 179 to 181 °C

## CCCCN1CCC(O)(c2ccc(C)c(C(F)(F)F)c2)CC1 (as salt: hydrochloric acid salt) [Example 9, 1-BUTYL-4-[4-METHYL-3-(TRIFLUOROMETHYL)-PHENYL]PIPERIDIN-4-OL]
other
  melting point: 197 to 198 °C

## C[C@]12N[C@H](Cc3ccccc31)c1ccccc12 [MK-801, reference compound]
[3]
  Locomotor activity, MK-801 0.7 mg/kg i.p.: 40367 ± 9127 counts/30 min ± SEM and 32169 ± 10605 counts/30 min ± SEM and 30819 ± 12771 counts/30 min ± SEM and 42061 ± 2219 counts/30 min ± SEM and 58370 ± 3007 counts/30 min ± SEM

## CCCN1CCC(O)(c2cccc(S(C)(=O)=O)c2)CC1 [drawing 22]
[1]
  ED50 DOPAC*: Inactive***

## CCCN1CCC(O)(c2cccc(C(F)(F)F)c2F)CC1 [drawing 25]
[1]
  ED50: 13 µmol/kg
hERG ion channel
  IC50: 161 µM

## CCN1CCC(O)(c2cccc(C(F)(F)F)c2F)CC1 [drawing 26]
[1]
  ED50: 65 µmol/kg
hERG ion channel
  IC50: 424 µM

## COCCN1CCC(O)(c2cccc(C(F)(F)F)c2F)CC1 [drawing 27]
[1]
  ED50: 43 µmol/kg
hERG ion channel
  IC50: 350 µM

## CCCCN1CCC(O)(c2cccc(C(F)(F)F)c2F)CC1 [drawing 28]
[1]
  ED50: 13 µmol/kg
hERG ion channel
  IC50: 69 µM

## CCCN1CCC(O)(c2ccc(F)c(C(F)(F)F)c2)CC1 [drawing 29]
[1]
  ED50: 76 µmol/kg
hERG ion channel
  IC50: 60 µM

## COCCN1CCC(O)(c2ccc(Cl)c(C(F)(F)F)c2)CC1 [drawing 30]
[1]
  ED50: 32 µmol/kg
hERG ion channel
  IC50: 68 µM

## CCCCN1CCC(O)(c2ccc(C)c(C(F)(F)F)c2)CC1 [drawing 31]
[1]
  ED50: 56 µmol/kg

## CCN1CCC(O)(c2cccc(C(F)(F)F)c2F)CC1 [drawing 32]
[2]; 11 μmol/kg
  Locomotor activity 0-60 min: 7481 ± 1266 counts/60 min ± SEM
[2]; 33 μmol/kg
  Locomotor activity 0-60 min: 11085 ± 2020 counts/60 min ± SEM
[2]; 100 μmol/kg
  Locomotor activity 0-60 min: 11288 ± 1339 counts/60 min ± SEM

## CCCCN1CCC(O)(c2ccc(C)c(C(F)(F)F)c2)CC1 [drawing 34]
[2]; 11 μmol/kg
  Locomotor activity 0-60 min: 8188 ± 1055 counts/60 min ± SEM
[2]; 33 μmol/kg
  Locomotor activity 0-60 min: 2879 ± 503 counts/60 min ± SEM
[2]; 100 μmol/kg
  Locomotor activity 0-60 min: 2961 ± 928 counts/60 min ± SEM

## CCCN1CCC(O)(c2cccc(Cl)c2Cl)CC1 [drawing 35]
[2]; 11 μmol/kg
  Locomotor activity 0-60 min: 8897 ± 801 counts/60 min ± SEM
[2]; 33 μmol/kg
  Locomotor activity 0-60 min: 9739 ± 2025 counts/60 min ± SEM
[2]; 100 μmol/kg
  Locomotor activity 0-60 min: 7499 ± 1620 counts/60 min ± SEM

## COCCN1CCC(O)(c2ccc(Cl)c(C(F)(F)F)c2)CC1 [drawing 36]
[2]; 11 μmol/kg
  Locomotor activity 0-60 min: 7945 ± 1230 counts/60 min ± SEM
[2]; 33 μmol/kg
  Locomotor activity 0-60 min: 5041 ± 2022 counts/60 min ± SEM
[2]; 100 μmol/kg
  Locomotor activity 0-60 min: 4493 ± 1081 counts/60 min ± SEM

## CCCN1CCC(O)(c2cccc(C(F)(F)F)c2F)CC1 [drawing 37]
[2]; 11 μmol/kg
  Locomotor activity 0-60 min: 11764 ± 3106 counts/60 min ± SEM
[2]; 33 μmol/kg
  Locomotor activity 0-60 min: 7506 ± 905 counts/60 min ± SEM
[2]; 100 μmol/kg
  Locomotor activity 0-60 min: 3698 ± 294 counts/60 min ± SEM

## COCCN1CCC(O)(c2cccc(C(F)(F)F)c2F)CC1 [drawing 38]
[2]; 11 μmol/kg
  Locomotor activity 0-60 min: 6422 ± 1190 counts/60 min ± SEM
[2]; 33 μmol/kg
  Locomotor activity 0-60 min: 6016 ± 1708 counts/60 min ± SEM
[2]; 100 μmol/kg
  Locomotor activity 0-60 min: 4296 ± 847 counts/60 min ± SEM

## CCCCN1CCC(O)(c2cccc(C(F)(F)F)c2F)CC1 [drawing 39]
[2]; 11 μmol/kg
  Locomotor activity 0-60 min: 7668 ± 1716 counts/60 min ± SEM
[2]; 33 μmol/kg
  Locomotor activity 0-60 min: 3213 ± 825 counts/60 min ± SEM
[2]; 100 μmol/kg
  Locomotor activity 0-60 min: 1630 ± 302 counts/60 min ± SEM

## CCCN1CCC(O)(c2ccc(F)c(C(F)(F)F)c2)CC1 [drawing 40]
[2]; 11 μmol/kg
  Locomotor activity 0-60 min: 6114 ± 1032 counts/60 min ± SEM
[2]; 33 μmol/kg
  Locomotor activity 0-60 min: 5906 ± 1340 counts/60 min ± SEM
[2]; 100 μmol/kg
  Locomotor activity 0-60 min: 5546 ± 441 counts/60 min ± SEM

## CCCCN1CCC(O)(c2ccc(C)c(C(F)(F)F)c2)CC1 [drawing 41]
[2]; 11 μmol/kg
  Locomotor activity 30-60 min: 2092 ± 1437 counts/30 min ± SEM
[2]; 33 μmol/kg
  Locomotor activity 30-60 min: 1337 ± 141 counts/30 min ± SEM
[2]; 100 μmol/kg
  Locomotor activity 30-60 min: 1365 ± 460 counts/30 min ± SEM

## CCCN1CCC(O)(c2cccc(C(F)(F)F)c2F)CC1 [drawing 42]
[2]; 11 μmol/kg
  Locomotor activity 30-60 min: 3200 ± 1817 counts/30 min ± SEM
[2]; 33 μmol/kg
  Locomotor activity 30-60 min: 1130 ± 344 (P = 0.06) counts/30 min ± SEM
[2]; 100 μmol/kg
  Locomotor activity 30-60 min: 541 ± 145 counts/30 min ± SEM

## CCCN1CCC(O)(c2ccc(F)c(C(F)(F)F)c2)CC1 [drawing 43]
[2]; 11 μmol/kg
  Locomotor activity 30-60 min: 213 ± 180 counts/30 min ± SEM
[2]; 33 μmol/kg
  Locomotor activity 30-60 min: 436 ± 246 counts/30 min ± SEM
[2]; 100 μmol/kg
  Locomotor activity 30-60 min: 258 ± 134 counts/30 min ± SEM

## CCCN1CCC(c2cccc(C(F)(F)F)c2F)CC1 [reference compound]
[1]
  ED50: 9 µmol/kg
hERG ion channel
  IC50: 7.97 µM

## CCCN1CCC(c2cccc(Cl)c2Cl)CC1 [reference compound]
[1]
  ED50: 41 µmol/kg
hERG ion channel
  IC50: 5.66 µM

## CCN1CCC(c2ccc(F)c(C(F)(F)F)c2)CC1 [reference compound]
hERG ion channel
  IC50: 23 µM
